According to patent US20240158750A1, “STROMA-FREE NK CELL DIFFERENTIATION FROM HUMAN PLURIPOTENT STEM CELLS” (The Children's Medical Center Corporation, priority 2021, published 2024):

Experiments:
[1] = tested on: iPSC-derived CD34+CD45+ HSPCs; experiment: ATAC-seq of iPSC-derived CD34+CD45+ HSPCs treated during EHT; type: cell-based, human; conditions: 500 nM or 1 μM during conversion of HE into HSPCs for 5 days, versus DMSO
Experimental: FIGS. 6A-6C are a series of schematics and graphs showing that G9a modulates chromatin accessibility of lymphoid genes. FIG. 6A is a schematic showing the experimental design. FIG. 6B is a heatmap showing assay for transposase-accessible chromatin using sequencing (ATAC-seq) peaks enriched in iPSC-derived CD34+CD45+ HSPCs that were treated with control vehicle (“DMSO”), 500 nM of UNC0224 (“UNC low”), or 1 μM of UNC0224 (“UNC high”) during the conversion of CD34+CD45− HE into CD34+CD45+ HSPCs for 5 days; 5 peaks are shown, labeled K1-K5.
FIGS. 6A-6C show the mechanism by which G9a (EHMT2) regulates lymphoid fate decision in iPSC-derived HSPCs (iPSC-HSPCs). The iPSCs were first differentiated into CD34+ HEs, and the cells were then treated with DMSO or G9a inhibitor UNC0224 during the EHT stage, which allowed the HEs to specify into CD34+CD45+ HSPCs. ATAC-seq analysis was then performed on these iPSC-HSPCs to detect ATAC peaks that indicated accessible chromatin regions (as indicated by higher ATAC-seq scores).

iPSC-derived EHT cells = experiment: RNA-seq of G9a-inhibitor treated EHT cells, PANTHER overrepresentation test; type: cell-based, human; conditions: for Client Text Box Input (fold Enrichment): UNC0224 treated vs control EHT cells
Experimental: RNA-seq analysis was performed on the same samples as in FIG. 6A.

G9a (EHMT2) = experiment: Stroma-free NK cell differentiation with CRISPRi G9a (EHMT2) knockdown; type: cell-based, human; conditions: G9a knockdown by Dox induced CRISPRi for 14 days, representative flow cytometry plot
Text: FIGS. 5A-5C are a series of schematics and graphs showing that G9a (also referred to herein as EHMT2) repression promoted NK cell differentiation. FIG. 5A is a schematic showing the experimental design. FIG. 5B is representative flow cytometry results showing the production of CD5-CD56+NK cells from control iPSCs or iPSCs with EHMT2 (G9a) knockdown by doxycycline (Dox) induced CRISPRi (see, e.g., SEQ ID NO: 50) for 14 days. […] FIG. 5C is a dot pot showing the frequencies of CD5-CD56+NK cells derived from control iPSCs or iPSCs with EHMT2 (G9a) knockdown (n=3, * P<0.05).
The iPSCs were then differentiated into CD34+HE cells and treated with Dox to induce G9a knockdown. The control or Dox treated cells were then differentiated into CD7+ lymphoid progenitors and eventually CD5-CD56+NK cells using the stroma-free methods described herein (see, e.g., Table 1).

MDA-MB-231 cells = conditions: in MDA-MB-231 cells; cited from earlier work
[2] = tested on: iPS-derived CD34+ hemogenic endothelial cells; experiment: Stroma-free differentiation on DLL4-coated plates; type: cell-based, human
Experimental: FIG. 2 is a series of flow cytometry plot showing cells produced from a stroma-free differentiation protocol, which can be used to more specifically generate T or NK cells after 5 weeks. The culture conditions for T cells included: (i) EB-derived CD34^+ hemogenic endothelium (HE) on DLL4 coating (10 μg/ml), and (ii) IL-7 (50 ng/ml), SCF (100 ng/ml), Flt3 (100 ng/ml), and TPO (50 ng/ml, first 2 weeks). For more details concerning the stroma-free T cell differentiation protocol, see, e.g., International PCT publication WO 2021/150919, the content of which is incorporated herein by reference in its entirety. The culture conditions for NK cells included: EB-derived CD34^+ hemogenic endothelium (HE) on DLL4 coating (5 μg/ml), IL7 (10 ng/ml), SCF (50 ng/ml), and Flt3 (50 ng/ml).
Hemogenic CD34^+ endothelial cells were first derived from iPS (Example 2). The iPS-derived CD34^+ hemogenic endothelial cells were cultured on tissue culture plates coated with Notch ligands (e.g., DLL4; e.g., 5 μg/ml or 10 μg/ml in PBS, 3 hours in room temperature) using media containing a cocktail of growth factors (e.g., Flt3, SCF, IL7). […]

[3] = tested on: class I HDAC (e.g., HDAC1, HDAC2, HDAC3); conditions: cited from earlier work

## COc1cc2c(NC3CCN(C)CC3)nc(N3CCCN(C)CC3)nc2cc1OCCCN(C)C [UNC0224]
[1]
  ATAC-seq peaks upregulated in treated cells: associated with genes that are responsible for lymphoid differentiation/function
iPSC-derived EHT cells; B cell mediated immunity (GO:0019724)
  Client Text Box Input (fold Enrichment): 7.3
iPSC-derived EHT cells; T cell activation (GO:0042110)
  Client Text Box Input (fold Enrichment): 14.53
iPSC-derived EHT cells; T cell differentiation (GO:0030217)
  Client Text Box Input (fold Enrichment): 18.46
iPSC-derived EHT cells; adaptive immune response (GO:0002250)
  Client Text Box Input (fold Enrichment): 6.79
iPSC-derived EHT cells; adaptive immune response based on somatic recombination of immune receptors built from immunoglobulin superfamily domains (GO:0002460)
  Client Text Box Input (fold Enrichment): 7.89
iPSC-derived EHT cells; antigen processing and presentation (GO:0019882)
  Client Text Box Input (fold Enrichment): 29.42
iPSC-derived EHT cells; cell activation (GO:0001775)
  Client Text Box Input (fold Enrichment): 5.69
iPSC-derived EHT cells; cell-cell adhesion (GO:0098609)
  Client Text Box Input (fold Enrichment): 4.83
iPSC-derived EHT cells; cellular component assembly (GO:0022607)
  Client Text Box Input (fold Enrichment): 2.21
iPSC-derived EHT cells; cellular component biogenesis (GO:0044085)
  Client Text Box Input (fold Enrichment): 2.44
iPSC-derived EHT cells; cellular component organization or biogenesis (GO:0071840)
  Client Text Box Input (fold Enrichment): 1.63
iPSC-derived EHT cells; cellular protein-containing complex assembly (GO:0034622)
  Client Text Box Input (fold Enrichment): 4.21
iPSC-derived EHT cells; gene expression (GO:0010467)
  Client Text Box Input (fold Enrichment): 1.58
iPSC-derived EHT cells; immune effector process (GO:0002252)
  Client Text Box Input (fold Enrichment): 6.63
iPSC-derived EHT cells; immune response (GO:0006955)
  Client Text Box Input (fold Enrichment): 2.87
iPSC-derived EHT cells; immune system process (GO:0002376)
  Client Text Box Input (fold Enrichment): 2.61
iPSC-derived EHT cells; immunoglobulin mediated immune response (GO:0016064)
  Client Text Box Input (fold Enrichment): 7.3
iPSC-derived EHT cells; leukocyte activation (GO:0045321)
  Client Text Box Input (fold Enrichment): 6.09
iPSC-derived EHT cells; leukocyte cell-cell adhesion (GO:0007159)
  Client Text Box Input (fold Enrichment): 15.11
iPSC-derived EHT cells; leukocyte mediated immunity (GO:0002443)
  Client Text Box Input (fold Enrichment): 7.27
iPSC-derived EHT cells; lymphocyte activation (GO:0046649)
  Client Text Box Input (fold Enrichment): 6.42
iPSC-derived EHT cells; lymphocyte mediated immunity (GO:0002449)
  Client Text Box Input (fold Enrichment): 7.62
iPSC-derived EHT cells; positive regulation of T cell activation (GO:0050870)
  Client Text Box Input (fold Enrichment): 22.09
iPSC-derived EHT cells; positive regulation of biological process (GO:0048518)
  Client Text Box Input (fold Enrichment): 2.02
iPSC-derived EHT cells; positive regulation of cell activation (GO:0050867)
  Client Text Box Input (fold Enrichment): 6.29
iPSC-derived EHT cells; positive regulation of cell adhesion (GO:0045785)
  Client Text Box Input (fold Enrichment): 17.95
iPSC-derived EHT cells; positive regulation of cell-cell adhesion (GO:0022409)
  Client Text Box Input (fold Enrichment): 21.54
iPSC-derived EHT cells; positive regulation of cellular process (GO:0048522)
  Client Text Box Input (fold Enrichment): 2.11
iPSC-derived EHT cells; positive regulation of immune system process (GO:0002684)
  Client Text Box Input (fold Enrichment): 5.43
iPSC-derived EHT cells; positive regulation of leukocyte activation (GO:0002696)
  Client Text Box Input (fold Enrichment): 6.29
iPSC-derived EHT cells; positive regulation of leukocyte cell-cell adhesion (GO:1903039)
  Client Text Box Input (fold Enrichment): 22.09
iPSC-derived EHT cells; positive regulation of lymphocyte activation (GO:0051251)
  Client Text Box Input (fold Enrichment): 6.53
iPSC-derived EHT cells; production of molecular mediator of immune response (GO:0002440)
  Client Text Box Input (fold Enrichment): 7.58
iPSC-derived EHT cells; protein-containing complex assembly (GO:0065003)
  Client Text Box Input (fold Enrichment): 3.99
iPSC-derived EHT cells; protein-containing complex subunit organization (GO:0043933)
  Client Text Box Input (fold Enrichment): 3.43
iPSC-derived EHT cells; regulation of T cell activation (GO:0050863)
  Client Text Box Input (fold Enrichment): 16.25
iPSC-derived EHT cells; regulation of cell activation (GO:0050865)
  Client Text Box Input (fold Enrichment): 5.42
iPSC-derived EHT cells; regulation of cell adhesion (GO:0030155)
  Client Text Box Input (fold Enrichment): 10.77
iPSC-derived EHT cells; regulation of cell-cell adhesion (GO:0022407)
  Client Text Box Input (fold Enrichment): 15.11
iPSC-derived EHT cells; regulation of immune system process (GO:0002682)
  Client Text Box Input (fold Enrichment): 4.07
iPSC-derived EHT cells; regulation of leukocyte activation (GO:0002694)
  Client Text Box Input (fold Enrichment): 5.49
iPSC-derived EHT cells; regulation of leukocyte cell-cell adhesion (GO:1903037)
  Client Text Box Input (fold Enrichment): 16.89
iPSC-derived EHT cells; regulation of lymphocyte activation (GO:0051249)
  Client Text Box Input (fold Enrichment): 5.82
iPSC-derived EHT cells; treated versus control EHT cells
  RNA-seq gene expression change: upregulation of genes associated with lymphoid development and function

## SEQ ID NO: 50: G9a CRISPRi gRNA: AATGGCCAAAAAGCATGTAG (chemistry not given here)
G9a (EHMT2)
  CD5-CD56+NK cells: 64.7%

## COc1cc2c(NC3CCN(C4CCCCC4)CC3)nc(N3CCCN(C(C)C)CC3)nc2cc1OCCCN1CCCCC1 [UNC0646]
MDA-MB-231 cells
  IC50: 26 nM

## DLL4: Notch ligand Delta-like-4, coated on tissue culture plates
[2]; higher concentration of DLL4 coating (e.g., 10 μg/ml)
  lineage outcome of differentiation: promotes T cell differentiation
[2]; lower concentration of DLL4 coating (e.g., 5 μg/ml)
  lineage outcome of differentiation: facilitates the generation of CD56^+ NK cells

## COc1cc2c(NC3CCN(CC4CCCCC4)CC3)nc(N3CCCN(C(C)C)CC3)nc2cc1OCCCN1CCCCC1 [UNC0631]
MDA-MB-231 cells
  IC50: 25 nM

## Cn1cc(/C=C/C(=O)c2cccc(F)c2)cc1/C=C/C(=O)NO [MC1568]
[3]
  inhibition of class I HDAC activity: Class II HDAC (e.g., HDAC4 and HDAC5) inhibitor. Displays no inhibition of class I HDAC activity (e.g., HDAC1, HDAC2, HDAC3).
